Results from US7250399B2, “Compounds having growth hormone releasing activity” (The Administrators of the Tulane Educational Fund, priority 1998, dated 2007).
“And” between values parts separate entries of the source, which are not always exact repeats. Identical values can stand only once.

What was measured:
Growth Hormone release [1] = assay: In Vitro Release of Growth Hormone in Rat; type: cell-based
Experimental: (§1) In vitro and in vivo activity of certain compounds were determined in rats and adult beagle dogs (in vivo activity only).

Growth Hormone release [2] = assay: In Vivo GH Release in Rats (i.v., serum GH by RIA); parameters: species or system Sprague-Dawley rats; conditions: i.v., serum 10 min after injection
Experimental: Immature female Sprague-Dawley rats were obtained from the Charles River Laboratories (Wilmington, Mass.). After arrival they were housed at 25° C. with a 14:10 hour light:dark cycle. Water and Purina rat chow were available ad libitum. Pups were kept with their mothers until 21 days of age.
Twenty-six day old rats, six rats per treatment group, were anesthetized interperitoneally with 50 mg/kg of pentobarbital 20 minutes prior to i.v. treatment with peptide. Normal saline with 0.1% gelatin was the vehicle for intravenous (i.v.) injections of the peptides. The anesthetized rats, weighing 55-65 grams, were injected i.v. with the quantity of grown hormone releasing compounds indicated in Table 3. Injection was made as a 0.1 mL solution into the jugular vein.
All animals were sacrificed by guillotine 10 minutes after final test injection (see Table 3). Trunk blood for the determination of blood GH levels was collected following decapitation. After allowing the blood to clot, it was centrifuged and the serum was separated from the clot. Serum was kept frozen until the day of sampling for radioimmunoassay (RIA) determination of growth hormone levels according to the following procedure, as developed by the National Institute of Arthritis, Diabetes and Digestive and Kidney Diseases (NIADDK).
Reagents are generally added to the RIA analysis tubes at a single sitting, at refrigerator temperature (about 4° C.) in the following sequence: • (a) buffer, • (b) “cold” (i.e., non-radioactive) standard or unknown serum sample to be analyzed, • (c) radio-iodinated growth hormone antigen, and • (d) growth hormone antiserum.
Reagent addition is generally carried out so that there is achieved a final RIA tube dilution of about 1:30,000 (antiserum to total liquid volume; vol:vol).
The mixed reagents are then typically incubated at room temperature (about 25° C.) for about 24 hours prior to addition of a second antibody (e.g., goat or rabbit anti-monkey gamma globulin serum) which binds to and causes precipitation of the complexed growth hormone antiserum. Precipitated contents of the RIA tubes are then analyzed for the number of counts in a specified period of time in a gamma scintillation counter. A standard curve is prepared by plotting number of radioactive counts versus growth hormone (GH) level. GH levels of unknown are then determined by reference to the standard curve.
Serum GH was measured by RIA with reagents provided by the National Hormone and Pituitary Program.
Serum levels in Tables 3 and 4 are recorded in ng/mL in terms of the rat GH standard of 0.61 International Units/mg (IU/mg). Data is recorded as the mean ±standard error of the mean (SEM). Statistical analysis was performed with Student's t-test. In Table 3, the results shown are the average of studies with six rats.

Growth Hormone release [3] = assay: In Vivo Release of Growth Hormone in Adult Beagle Dogs; parameters: unit not given here
Experimental: as §1

## CCN(CC)C(=O)C1CCCNC1 (centres unmarked) [N,N-diethylnipecotamide]
Growth Hormone release [1]; compound at .0001 (dose unit not given)
  In Vitro Release of Growth Hormone in Rat, GH: 418 ng/mL
Growth Hormone release [1]; compound at .0003 (dose unit not given)
  In Vitro Release of Growth Hormone in Rat, GH: 395 ng/mL
Growth Hormone release [1]; compound at .001 (dose unit not given)
  In Vitro Release of Growth Hormone in Rat, GH: 489 ng/mL
Growth Hormone release [1]; compound at .003 (dose unit not given)
  In Vitro Release of Growth Hormone in Rat, GH: 536 ng/mL
Growth Hormone release [1]; compound at .01 (dose unit not given)
  In Vitro Release of Growth Hormone in Rat, GH: 642 ng/mL
Growth Hormone release [2]; compound at 1 (dose unit not given)
  In Vivo Release of Growth Hormone in Rat, GH: 928 ng/mL
Growth Hormone release [2]; compound at 3 (dose unit not given)
  In Vivo Release of Growth Hormone in Rat, GH: 2070 ng/mL
Growth Hormone release [2]; compound at 10 (dose unit not given)
  In Vivo Release of Growth Hormone in Rat, GH: 2896 ng/mL
Growth Hormone release [2]; compound at 30 (dose unit not given)
  In Vivo Release of Growth Hormone in Rat, GH: 2186 ng/mL
Growth Hormone release [2]; compound at .3 (dose unit not given)
  In Vivo Release of Growth Hormone in Rat, GH: 221 ng/mL
Growth Hormone release [3]; oral dose 4 mg/kg, time 0 hr, 4 mg/kg
  In Vivo Release of Growth Hormone in Adult Beagle Dogs: 1.7 and 0.9
Growth Hormone release [3]; oral dose 4 mg/kg, time 0.5 hr, 4 mg/kg
  In Vivo Release of Growth Hormone in Adult Beagle Dogs: 57 and 43
Growth Hormone release [3]; oral dose 4 mg/kg, time 1 hr, 4 mg/kg
  In Vivo Release of Growth Hormone in Adult Beagle Dogs: 13 and 8
Growth Hormone release [3]; oral dose 4 mg/kg, time 6 hr, 4 mg/kg
  In Vivo Release of Growth Hormone in Adult Beagle Dogs: 1.9 and 2.1
Growth Hormone release [3]; oral dose 4 mg/kg, time 8 hr, 4 mg/kg
  In Vivo Release of Growth Hormone in Adult Beagle Dogs: 1.7 and 0.9
Growth Hormone release [3]; oral dose 4F [sic] (mg/kg; F not explained), time 0 hr
  In Vivo Release of Growth Hormone in Adult Beagle Dogs: 2.7
Growth Hormone release [3]; oral dose 4F [sic] (mg/kg; F not explained), time 2 hr
  In Vivo Release of Growth Hormone in Adult Beagle Dogs: 3.7
Growth Hormone release [3]; oral dose 4F [sic] (mg/kg; F not explained), time 4 hr
  In Vivo Release of Growth Hormone in Adult Beagle Dogs: 0.9
Growth Hormone release [3]; oral dose 4F [sic] (mg/kg; F not explained), time 5 hr
  In Vivo Release of Growth Hormone in Adult Beagle Dogs: 10
Growth Hormone release [3]; oral dose 4F [sic] (mg/kg; F not explained), time 8 hr
  In Vivo Release of Growth Hormone in Adult Beagle Dogs: 3.5
